What all share (experiment): inhibition of tumour cell growth, NCI panel, 48 h
Assay [1] relates to MDA-MB-231 breast.
Assay [2] relates to HT29 colon.
In assay [3] the test system is SNB-75 CNS.
In assay [4] the test system is SF-295 CNS.
Assay [5] deals with TK-10 renal.
Assay [6] has as its system SN12C renal.
For assay [7], the system named is HOP-92 NSCLC.
Assay [8] has as its system SF-539 CNS.
Assay [9] has as its system A498 renal.
The subject of assay [10] is SK-MEL-2 melanoma.

Each structure is given as a SMILES string. Where “and” joins values, the source holds several entries; their conditions need not be identical. Equal values may be shown once.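 Grown in 96-well plates, cells were treated for 48 hours with each compound at five concentrations. Insufficient inhibition: endpoint recorded as highest concentration tested. GI50 is the concentration that inhibits growth by half. TGI marks complete inhibition of growth.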 Where only a bound is given, the exact number is not on record here.

In the case of `CCN1CCCCCCCCCC(=N/O)/C(=N\O)C1`, the TGI in assay [1], in [2], in assay [3], in assay [4], in [5] and in assay [6] was above 100 µM throughout. In addition, the TGI in assay [7], in assay [8] and in assay [9] was above 100 µM throughout.
Take `O=C(CC(O)(C(F)(F)F)C(F)(F)F)c1cccs1`: the TGI in assay [1], in assay [2], in [3], in assay [4], in assay [5] and in assay [6] was above 10 µM each time. Further, the TGI in assay [7] and in assay [8] was above 10 µM each time.
As for `CCN(CC)CCN1C(=O)c2c(c3c4cccc(Cl)c4n(C4OC(CO)C(OC)C(O)C4O)c3c3[nH]c4c(Cl)cccc4c23)C1=O` (stereo not drawn), the TGI in assay [1] is 1.12 µM. Moreover, the GI50 is below 0.0001 µM in assay [2]; 0.00103 µM and < 0.01 µM in [10]; 0.000169 µM in assay [4]; 0.000362 µM in assay [7].
On to `CN(C)C/C=C/C(=O)Nc1ccc(C(=O)Nc2cccc(Nc3ncc(Cl)c(-c4c[nH]c5ccccc45)n3)c2)cc1`, for which the GI50 in [1] was 0.0332 µM; in assay [2] it was 0.0385 µM; in [10], 0.021 µM; in assay [3], 0.0316 µM; in assay [4], 0.155 µM; in [5] it was 0.0602 µM. Moreover, the GI50 in assay [6] is 0.0249 µM; in assay [8] it was 0.0199 µM; in assay [9], 0.0189 µM. Further, the TGI turned out to be 0.33 µM in assay [1]; 0.678 µM in [2]; 0.0682 µM in assay [10]; 0.101 µM in [3]; 0.475 µM in assay [4]; 1.34 µM in assay [5]. Further, the TGI is 0.0575 µM in [8] and 0.119 µM in assay [9].
For `O=C1NC(c2cccc3ccccc23)Nc2ccc(Cl)cc21` (stereo not drawn), the TGI worked out at 30.3 µM in [1]; 0.105 µM in assay [2]; 0.000902 µM in [3]; 0.0232 µM in assay [4]; 17.9 µM in [6].
Consider `NC(=O)NC(=O)Nc1ccc(Br)cc1`, for which the TGI in assay [1] is above 42.1 µM; in assay [10], above 20.7 µM; in [4] it was above 100 µM; in [5], above 100 µM; in assay [6] it was above 100 µM; in assay [7] it was above 100 µM. Moreover, the TGI in assay [8] and in assay [9] was above 100 µM each time.
For the compound `Nc1nc2c(ncn2C2OC(CO)C(O)C2O)c(=O)o1` (stereo not drawn), the TGI in assay [2], in assay [10], in assay [3], in assay [4], in assay [5] and in [6] was above 100 µM throughout. The TGI in assay [7], in assay [8] and in [9] was above 100 µM each time.
On to `CN1CCN(CCCCCOc2cc(O)c3c(=O)cc(-c4ccccc4)oc3c2)CC1`, for which the GI50 was 1.12 µM in [1]; 2.86 µM in assay [2]; 3.04 µM in assay [10]; 30.5 µM in assay [3]; 2.05 µM in assay [4]; 12 µM in assay [5]. The figures for the GI50 in assay [6], in assay [8] and in assay [9] were 11.8 µM, 2.81 µM and 24.3 µM, respectively. Besides, the TGI was found to be 4.53 µM in [1]; 8.12 µM in [2]; 8.76 µM in assay [10]; 54.9 µM in assay [3]; 4.16 µM in [4]; 39.4 µM in assay [5]. The TGI in [6] amounted to 27.6 µM; in assay [8], 7.87 µM; in [9], 42.8 µM.
`N#Cc1c(-c2ccccc2)nc(SCC(O)CN2CCOCC2)nc1N1CCOCC1` (stereo not drawn): the GI50 in [1] is 8.36 µM; in [2], 15.9 µM; in assay [3] it was 1.36 µM; in [4], 5.49 µM; in [5] it was 10.9 µM; in [6], 18.9 µM. The GI50 is 0.442 µM in assay [7] and 2.43 µM in assay [9]. Further, the TGI in [1] was above 100 µM; in assay [2], above 100 µM; in assay [3] it was 11.1 µM; in [4], above 100 µM; in assay [5], above 100 µM; in assay [6], above 100 µM. For the same compound, the TGI in assay [7] amounted to 2.23 µM; in assay [9] it was 23 µM.
In the case of `O=C1CCC2(c3ccccc3)OCC([C@@H](O)c3ccccc3)N12` (stereo partly drawn), the TGI in [2], in assay [10], in assay [3], in assay [4], in assay [5] and in [6] was above 100 µM each time. Besides, the TGI in [7], in assay [8] and in [9] was above 100 µM throughout.
On to `CCCCCCCCCCCCCCCC(=O)OCC1OC(OCCCC)[C@H](O[C@@H]2OC(C)C(OC(=O)CCC)C(O)C2O)C(O)C1O` (stereo partly drawn), for which the GI50 in assay [1] is 14.4 µM; in [2], 18.6 µM; in assay [10] it was 41.2 µM; in [3], 14.4 µM; in assay [4] it was 13.8 µM; in assay [5], 15.6 µM. The GI50 in [6] was 14.1 µM; in assay [7], 17 µM; in [8], 21 µM. Moreover, the TGI in assay [1] was 30.2 µM; in assay [2] it was 38.7 µM; in [10], above 100 µM; in assay [3], 28.7 µM; in assay [4] it was 28.2 µM; in assay [5], 30.2 µM. Moreover, the TGI in [6] was found to be 28.5 µM; in assay [7], 33.2 µM; in assay [8], 36.8 µM.
With `CCCCNC(=O)CC1=C(C)/C(=C/c2[nH]c(-c3ccc[nH]3)cc2OC)N=C1C`, the GI50 in assay [1] was 1.48 µM; in [2], 2.18 µM; in [10], 1.72 µM; in assay [3], 1.85 µM; in [4], 1.6 µM; in [5] it was 2.83 µM. Moreover, the GI50 in [7] is 2.17 µM; in assay [8], 2.75 µM; in [9], 2.54 µM. Also, the TGI in [1] was determined as 8.04 µM; in assay [2] it was 11.1 µM; in assay [10] it was 3.87 µM; in assay [3] it was 7.36 µM; in assay [4] it was 3.48 µM; in assay [5], 8.8 µM. Besides, the TGI in [7] was found to be 7.09 µM; in assay [8] it was 9.31 µM; in assay [9] it was 7.43 µM.
Regarding `CCN(CC)CCOc1ccc2c(-c3ccccc3)c(-c3ccc(OC)cc3)c(=O)oc2c1`, the GI50 was 4.91 µM in [1]; 3 µM in [2]; 3.69 µM in [3]; 1.69 µM in assay [4]; 11.6 µM in assay [5]; 10.8 µM in assay [6]. Also, the GI50 was 2.47 µM in assay [7], 5.48 µM in assay [8] and 3.13 µM in [9]. Also, the TGI in [1] amounted to 17.5 µM; in assay [2] it was 11.4 µM; in assay [3], 16.7 µM; in assay [4], 3.62 µM; in [5] it was 25.2 µM; in assay [6] it was 23.9 µM. The results for the TGI in assay [7], in [8] and in assay [9] were 10.7 µM, 19.1 µM and 16.4 µM, respectively.
As for `CS(=O)(=O)ON1C(=O)c2ccc(N)cc2C1=O`, the TGI in assay [2], in assay [10], in assay [3], in assay [4], in assay [5] and in [6] was above 100 µM each time. Further, the TGI in assay [7], in [8] and in assay [9] was above 100 µM in each case.
With `Oc1ccc(/C=N/NC(=S)Nc2ccccc2)nc1`, the GI50 in assay [1] is 0.729 µM; in assay [2], 5.83 µM; in assay [10] it was 1.54 µM; in assay [5], 4.18 µM; in assay [6] it was 1.07 µM; in [7], 0.439 µM. The GI50 in assay [8] was 0.851 µM; in assay [9] it was 3 µM. The TGI in assay [1] is above 100 µM; in [2] it was above 100 µM; in assay [10], 44.1 µM; in assay [5], above 100 µM; in assay [6], above 100 µM; in assay [7] it was 6.92 µM. For the same compound, the TGI in assay [8] is 6.19 µM; in assay [9], above 100 µM.
As for `N#Cc1ncc(-c2ccc(C(F)(F)F)cc2)c(NC2CCCCCC2)n1`, the GI50 in assay [1] is 6.56 µM; in assay [2] it was 9.35 µM; in [3], above 100 µM; in [4], 27.5 µM; in [5] it was 91 µM; in assay [6], 34.8 µM. Further, the GI50 in assay [8] is above 100 µM; in [9] it was 21.4 µM. The TGI in assay [1], in assay [2], in assay [3], in [4], in assay [5] and in assay [6] was above 100 µM each time. In addition, the TGI in assay [8] and in [9] was above 100 µM in each case.
As to `c1ccc(C2=Nc3ccccc3N3CNN=C23)cc1`, the GI50 in assay [1] was 40.7 µM; in assay [2], 52.2 µM; in assay [10] it was above 100 µM; in assay [3], 25.8 µM; in assay [4], above 100 µM; in assay [5], 79.4 µM. Also, the GI50 in [6] was above 100 µM; in [7], 15 µM. Further, the TGI in [1] is above 100 µM; in assay [2] it was above 100 µM; in [10], above 100 µM; in assay [3], 86.6 µM; in [4], above 100 µM; in [5], above 100 µM. Besides, the values for the TGI in [6] and in assay [7] were above 100 µM and 51.5 µM, respectively.
Regarding `C=C1CC[C@@](C)(c2cc(Br)c(C)cc2OC(C)=O)[C@H]1C`, the GI50 in assay [1] is 12.5 µM; in assay [2], 14.9 µM; in assay [10], 13.8 µM; in assay [4], 10.7 µM; in [5], 12 µM; in assay [6], 11.4 µM. The results for the GI50 in assay [7], in assay [8] and in assay [9] were 3.49 µM, 13.5 µM and 16.8 µM, respectively. The TGI amounted to 25.9 µM in assay [1]; 28.1 µM in [2]; 32.4 µM in assay [10]; 23.2 µM in [4]; 25 µM in [5]; 23.8 µM in assay [6]. The TGI in [7] amounted to 16.2 µM; in assay [8], 26.4 µM; in assay [9], 31.6 µM.
With `COc1cccc(N2C(=N)/C(=C3\Nc4ccccc4S3)CC2=O)c1`, the GI50 in assay [1] is 51.1 µM; in assay [2] it was 3.34 µM; in [10], 48.4 µM; in assay [3], 10.3 µM; in assay [4], 1.64 µM; in [5], 17.8 µM. Further, the GI50 in assay [6] was above 100 µM; in [8] it was 5.4 µM; in assay [9], 2.02 µM. In addition, the TGI was above 100 µM in [1]; above 100 µM in [2]; above 100 µM in assay [10]; 57.3 µM in assay [3]; 8.1 µM in assay [4]; above 100 µM in [5]. For the same compound, the TGI was above 100 µM in [6], above 100 µM in assay [8] and 80 µM in assay [9].
As to `CN(C)CC1CCCC/C1=N\OC(=O)c1ccccc1` (stereo not drawn), the TGI in [2], in [10], in assay [3], in [4], in assay [5] and in [6] was above 100 µM in each case. Further, the TGI in assay [7], in [8] and in assay [9] was above 100 µM throughout.
Take `[pH]1p2[pH]p3p1p3[pH]2.c1cc[c]([Ge]([c]2ccccc2)[c]2ccccc2)cc1.c1cc[c]([Ge]([c]2ccccc2)[c]2ccccc2)cc1.c1cc[c]([Ge]([c]2ccccc2)[c]2ccccc2)cc1`: the GI50 in [2] was 17.6 µM; in assay [10], 19.4 µM; in assay [3], 10.1 µM; in assay [4], 21.2 µM; in assay [5], 18.5 µM; in [6] it was 15.1 µM. Further, the results for the GI50 in [7], in assay [8] and in [9] were 12.8 µM, 13.9 µM and 15.8 µM, respectively. The TGI in assay [2] was 34 µM; in assay [10] it was 34.9 µM; in [3], 32.4 µM; in assay [4], 42.9 µM; in assay [5], 33.5 µM; in assay [6], 29.7 µM. Moreover, the figures for the TGI in assay [7], in [8] and in assay [9] were 29.8 µM, 31.8 µM and 30 µM, respectively.

The values above are taken from PubChem BioAssay (NCI).
